In US20210068400A1, “COMPOSITIONS CONTAINING COMBINATIONS OF NITROGEN-FIXING BACTERIA AND ADDITIONAL AGENTS AND THEIR USE IN FIXING NITROGEN IN PLANT SPECIES” (GRACE BREEDING NITROGEN FIXATION TECHNOLOGIES LTD., priority 2018, published 2021):
Values joined by “and” are separate entries in the source; they are usually repeats but may differ in a detail not shown here. Equal entries are not always repeated.

Key:
maize plants [1] = experiment: Maize field trial 3, growth parameters (Example 3); format: in vivo, maize (Zea mays); conditions: 3 months after sowing
Protocol: In some of the treatments (as explained hereinbelow), some or all of the active substances were added in the form of granules to the furrow in which the plants had been seeded. The granules were prepared by soaking 1 kg of Perlite granules (having a mean diameter greater than 2 mm) in the following solution: • 50 ml of the concentrated activating agent emulsion (as described above). • 930 ml water. • 10 ml Rhizobium leguminosarum biovar viceae (Cell-Tech™ granular; Monsanto Company) (Granule-R). or Bacillus subtilis (Granule-B) • 10 ml Calirus. • 1000 ml total
This trial was sown during the Israeli growing season of 2018 using the pioneer maize silage variety number W86. The field was washed from possible nitrogen using sprinklers irrigation. The combination treatments administered to the plants which are of relevance for the present study were: • A. Positive Control—full commercial nitrogen. The plants were treated with 30 units of nitrogen per 1000 m^2 by means of applying to this area 60 kg urea containing 46% urea. • B. Negative Control—no added nitrogen. • C. Rhizobium leguminosarum biovar viceae, 3% (containing 10^9 organisms) was added to the activating agent emulsion described in ‘general methods’ hereinabove, to which Calirus (1%) was also added. Perlite granules were soaked with this mixture as described hereinabove. The granules were added to the sowing trench at a density of 2 Kg granules per 1000m^2. • D. As for treatment C, but with the granule quantity adjusted to 1 Kg granules per 1000 m^2. • E. As for treatment C, but with the granule quantity adjusted to 4 Kg granules per 1000 m^2.
The following parameters were monitored at one timepoint during growth of the maize plants, 3 months after they were sown: • Plant stem caliber • Leaf width • Cob weight (taken from the main stems of 10 plants) • Total plant weight (10 plants) • Plant height
The statistical significance of the difference between the various treatment groups was determined using the Tukey-Kramer HSD test.

wheat (Galil variety) = experiment: Wheat field trial 5 (Example 5); format: in vivo
Protocol: Two different agricultural sites in Israel were selected for field trials in which the effects of compositions of the present invention on wheat crops were investigated. The various compositions were administered to the growing wheat (Galil variety) as described in Examples 3 and 4, hereinabove. The treatments used in this study are as follows:
B. Negative control (no nitrogen source)
A. Granules prepared according to Example 3, applied at a density of 4 kg granules per 1000 m^2.
C. Granules prepared according to Example 3, applied at a density of 2 kg granules per 1000 m^2.
F. Positive control—full commercial nitrogen. The plants were treated with 30 units of nitrogen per 1000 m^2 by means of applying to this area 60kg urea containing 46% urea.
The following parameters were measured in the wheat, in order to assess the effect of the treatment compositions on plant growth: […]

maize plants [2] = experiment: Maize field trial 4, total leaf nitrogen content (Example 4); format: in vivo, maize (Zea mays); conditions: maize leaves, 3 months after sowing
Protocol: Generally, the nitrogen content of the growing plant in the field study was measured using a spectrophotometric method based on the standard method “4500-NO3_I. Cadmium Reduction Flow Injection Method” published by the Standard Methods Organization (<https://www.standardmethods.org/doi/full/10.2105/SMWW.2882.089). This method is based on the conversion of nitrates in an aqueous plant material extract to nitrites by passing the extract through a copperized cadmium column. Subsequent processing steps convert the nitrites to a magenta-colored dye having an absorbance peak at 540 nm.
This trial was sown during the Israeli growing season of 2018 using the pioneer maize silage variety number W86. The field was washed from possible nitrogen using sprinkler irrigation. The combination treatments administered to the plants which are of relevance for the present study were: • PC. Positive Control—full commercial nitrogen. The plants were treated with 30 units of nitrogen per 1000 m^2 by means of applying to this area 60 kg urea containing 46% urea. • NC. Negative Control—no nitrogen. • 1. […]
The average total leaf nitrogen content was measured at one timepoint during growth of the maize plants, 3 months after sowing.

[3] = system: Tomato seedlings inoculated with bacterial and fungal cocktails; experiment: Inoculation of tomato seedlings; format: in vivo; conditions: 5 days following treatment; concentration 3; FIG. 31
Protocol: Tomato seedlings were inoculated with 10 cc of each test mixtures containing Rhizobium species and various combinations of activating phytochemicals. (including the bacterial and fungal cocktails described below) […].
The health of each plant was assessed 5 days following treatment, using a semi-quantitative inoculation index (0=healthy, 5=dead).
The composition and concentration of the various test mixtures, as well as the number of different activating agents used in combination are summarized in the following two tables (all concentrations are given as % v/v): […]

[4] = system: Clavibacter michiganensis sp. Michiganensis (Cmm); experiment: Survival of Cmm after co-incubation in test tubes, colony count; format: cell-based; conditions: Example 12, contact time 3 days
Protocol: Various combinations of a 3% Rhizobium sp. preparation together with an emulsion containing 5 activating agents (E-91) or one of the components of said emulsion (naringin) and a culture of the plant pathogen Cmm (10^5-10^6 CFU/ml final concentration) were incubated in test tubes for up to 3 days (4 replicates per combination). At the end of the 3 day incubation period the contents of the test tubes containing all these components were plated on to growth medium and the numbers of colonies of Cmm and Rhizobium species for each test condition (CFU/ml) were measured.
The emulsion containing the 5 activating agents (Sclaerol, Naringin, Nootkatone, Stevia and CBD; referred to in the results table hereinbelow as 5% plant emulsion E-91) was prepared as described in Example 6, hereinabove.
This study was conducted in essentially the same manner as the study presented in Example 12. In the present study, however, the effect of the 5-component activating agent emulsion (5% plant emulsion E91) is compared with the following combinations of activating agents: […]

NO production = experiment: Inhibition of NO production in activated RAW 264.7 macrophages (Griess assay); format: cell-based; conditions: Mus musculus, RAW264.7, 24 h, RAW 264.7 macrophages activated with LPS and IFN-γ
Protocol: RAW 264.7 macrophages were grown in flat-bottomed flasks using a standard growth medium (DMEM supplemented with 5% FBS, antibiotics and glutamine. The cells were maintained in accordance with standard procedures well known in the art. After the cells reached confluence, they were removed from the flasks using mechanical means and then concentrated by centrifuging and resuspended in a small volume of fresh culture medium. The cell concentration was adjusted with growth medium in order that about 75,000 cells could be added to each well of a 96-well plate. A combination of 25 μg/mL LPS and 10 U/ml IFN-γ DMEM, was used for activation of the macrophages. The various test agents were added to the wells one hour prior to activation. The cells were then incubated for a further 24 hours, prior to assaying the inflammatory mediator production and cell viability. The production of NO by the macrophages subjected to the various treatments was assayed using the Griess reagent (equal volumes of 1% sulphanilamide and 0.1% […]-diamine in 5% HCl). 70 μl of supernatant from each test well was transferred to a fresh 96-well plate and mixed with 70 μL of Griess reagent and the violet color produced was measured at 540 nm.

TNF-α production = experiment: Inhibition of TNF-α production in activated RAW 264.7 macrophages (ELISA); format: cell-based; conditions: Mus musculus, RAW264.7; RAW 264.7 macrophages activated with LPS and IFN-γ, 24 hours
Protocol: RAW 264.7 macrophages were grown in flat-bottomed flasks using a standard growth medium (DMEM supplemented with 5% FBS, antibiotics and glutamine. The cells were maintained in accordance with standard procedures well known in the art. After the cells reached confluence, they were removed from the flasks using mechanical means and then concentrated by centrifuging and resuspended in a small volume of fresh culture medium. The cell concentration was adjusted with growth medium in order that about 75,000 cells could be added to each well of a 96-well plate. A combination of 25 μg/mL LPS and 10 U/ml IFN-γ DMEM, was used for activation of the macrophages. The various test agents were added to the wells one hour prior to activation. The cells were then incubated for a further 24 hours, prior to assaying the inflammatory mediator production and cell viability. A sandwich ELISA was used to determine TNF-α concentration. The primary antibody was used at a concentration of 0.5 μg/mL in PBS. Serial dilutions of TNF-α standard from 0 to 1000 pg/mL in diluent (0.05% Tween-20, 0.1% BSA in PBS) were used as internal standard. TNF-α was detected with a biotinylated second antibody and an avidin peroxidase conjugate with TMB as detection reagent. The color development was monitored at 655 nm, taking readings after every 5 minutes. After 25 minutes, the reaction was stopped using 0.5 M sulphuric acid and the absorbance was measured at 450 nm.

RAW 264.7 macrophages = experiment: Cell viability, Alamar Blue assay; format: cell-based
Protocol: RAW 264.7 macrophages were grown in flat-bottomed flasks using a standard growth medium (DMEM supplemented with 5% FBS, antibiotics and glutamine. The cells were maintained in accordance with standard procedures well known in the art. After the cells reached confluence, they were removed from the flasks using mechanical means and then concentrated by centrifuging and resuspended in a small volume of fresh culture medium. The cell concentration was adjusted with growth medium in order that about 75,000 cells could be added to each well of a 96-well plate. A combination of 25 μg/mL LPS and 10 U/ml IFN-γ DMEM, was used for activation of the macrophages. The various test agents were added to the wells one hour prior to activation. The cells were then incubated for a further 24 hours, prior to assaying the inflammatory mediator production and cell viability.
The Alamar Blue assay of viability was performed by adding 100 μl of a 10% Alamar Blue solution to each well and incubating at 37° C. for 1-2 hr. Fluorescence was measured (excitation at 545 nm and emission at 595 nm) and expressed as a percentage of the values in untreated control cells.

[5] = at the IC50 for inhibition of NO production
[6] = at the IC50 for inhibition of TNF-α production

SMILES: NC(N)=O [A. Positive control - full nitrogen, urea]
- Total plant weight (10 plants) (maize plants [1]; 10 plants): 11.81 kg
- Mean cob weight (10 plants) (maize plants [1]; cobs from the main stems of 10 plants): 3.96 kg
- Mean Plant stem caliber (maize plants [1]; maize): 37.2 mm
- Mean leaf width (maize plants [1]; maize): 10.5 cm
- Plant height (maize plants [1]; mean of 10 plants): 2.72 m
- Average wheat grain yield (wheat (Galil variety); from each of 6 2 m plots): 1.11 kg
- Flag leaf width (wheat (Galil variety); wheat): 2.0 cm
- Main shoot diameter (wheat (Galil variety); wheat): 0.42 cm
- No. of side shoots (wheat (Galil variety); wheat): 1.3
- Average nitrogen content, flag leaves (wheat (Galil variety); wheat flag leaf): 2.94
- AVERAGE N2 CONTENT (total leaf nitrogen) (maize plants [2]): 3.16

SMILES: C=C(C)[C@@H]1CCC(C)=C[C@H]1c1c(O)cc(CCCCC)cc1O [Cannabidiol (CBD; hemp oil), cannabidiol]
- Protection of tomato plants (inoculation index 0=healthy, 5=dead) [3]: highly active even when present as the sole activating agent

SMILES: C[C@@H]1O[C@@H](O[C@H]2[C@H](Oc3cc(O)c4c(c3)O[C@H](c3ccc(O)cc3)CC4=O)O[C@H](CO)[C@@H](O)[C@@H]2O)[C@H](O)[C@H](O)[C@H]1O [Naringin]
- Cmm count, MEAN ([4]; mean of 4 replicates): 7.75 × 10^5 CFU/ml
- Cmm count, individual replicates ([4]; replicates 1-4, listed as Cmm + 0.1% Naringin): 6.5 × 10^5 CFU/ml and 8.3 × 10^5 CFU/ml and 7.7 × 10^5 CFU/ml and 8.6 × 10^5 CFU/ml
- IC50 (NO production): 40 µg/mL
- IC50 (TNF-α production): 90 µg/mL
- Cell viability (% of cell survival) (RAW 264.7 macrophages; [5]): 90.10 ± 4.2%
- Cell viability (% of cell survival) (RAW 264.7 macrophages; [6]): 91.50 ± 5.2%

SMILES: C=C[C@](C)(O)CC[C@@H]1[C@@]2(C)CCCC(C)(C)[C@@H]2CC[C@@]1(C)O [Sclareol]
- IC50 (NO production): 40 µg/mL
- IC50 (TNF-α production): 80 µg/mL
- Cell viability (% of cell survival) (RAW 264.7 macrophages; [5]): 96.20 ± 2.1%
- Cell viability (% of cell survival) (RAW 264.7 macrophages; [6]): 95.30 ± 2.2%

SMILES: C=C1C[C@@]23CC[C@H]4[C@@](C)(CCC[C@@]4(C)C(=O)O)[C@@H]2CC[C@]1(O)C3 [Steviol]
- IC50 (TNF-α production): 80 µg/mL
